Experimental data as given in PubChem BioAssay (NCI).
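These data come from cells grown in 96-well plates and exposed to compound for 48 hours at five concentrations. TGI marks complete inhibition of growth.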

Columns and labels:
Assay in all cases: growth of human tumour cells (NCI), 48 h
MALME-3M melanoma = tested on: MALME-3M melanoma
CCRF-CEM leukemia = tested on: CCRF-CEM leukemia
DU-145 prostate = tested on: DU-145 prostate
UACC-62 melanoma = tested on: UACC-62 melanoma
SK-MEL-28 melanoma = tested on: SK-MEL-28 melanoma
K-562 leukemia = tested on: K-562 leukemia
SNB-19 CNS = tested on: SNB-19 CNS
A549 NSCLC = tested on: A549 NSCLC
KM12 colon = tested on: KM12 colon
786-0 renal = tested on: 786-0 renal
UO-31 renal = tested on: UO-31 renal
TK-10 renal = tested on: TK-10 renal
SNB-75 CNS = tested on: SNB-75 CNS
COLO 205 colon = tested on: COLO 205 colon
NCI-H522 lung = tested on: NCI-H522 lung
SK-MEL-5 melanoma = tested on: SK-MEL-5 melanoma
HOP-62 NSCLC = tested on: HOP-62 NSCLC
MOLT-4 leukemia = tested on: MOLT-4 leukemia
SF-268 CNS = tested on: SF-268 CNS
PC-3 prostate = tested on: PC-3 prostate
HCC-2998 colon = tested on: HCC-2998 colon
NCI-H226 lung = tested on: NCI-H226 lung
HCT-116 colon = tested on: HCT-116 colon
SF-539 CNS = tested on: SF-539 CNS
MDA-MB-435 = tested on: MDA-MB-435
MDA-MB-231 breast = tested on: MDA-MB-231 breast
IGROV1 ovarian = tested on: IGROV1 ovarian
EKVX NSCLC = tested on: EKVX NSCLC
NCI-H460 lung = tested on: NCI-H460 lung
OVCAR-8 ovarian = tested on: OVCAR-8 ovarian
U251 CNS = tested on: U251 CNS
MCF7 breast = tested on: MCF7 breast
HCT-15 colon = tested on: HCT-15 colon
BT-549 breast = tested on: BT-549 breast
ACHN renal = tested on: ACHN renal
LOX IMVI melanoma = tested on: LOX IMVI melanoma
HT29 colon = tested on: HT29 colon
MDA-N = tested on: MDA-N
HL-60(TB) leukemia = tested on: HL-60(TB) leukemia
SK-MEL-2 melanoma = tested on: SK-MEL-2 melanoma
CAKI-1 renal = tested on: CAKI-1 renal
M14 melanoma = tested on: M14 melanoma
SK-OV-3 ovarian = tested on: SK-OV-3 ovarian
SW-620 colon = tested on: SW-620 colon
HS 578T breast = tested on: HS 578T breast
RXF 393 renal = tested on: RXF 393 renal
NCI/ADR-RES ovarian = tested on: NCI/ADR-RES ovarian
OVCAR-5 ovarian = tested on: OVCAR-5 ovarian
T-47D breast = tested on: T-47D breast
UACC-257 melanoma = tested on: UACC-257 melanoma
SR leukemia = tested on: SR leukemia
HOP-92 NSCLC = tested on: HOP-92 NSCLC
SN12C renal = tested on: SN12C renal
SF-295 CNS = tested on: SF-295 CNS
RPMI-8226 leukemia = tested on: RPMI-8226 leukemia
OVCAR-4 ovarian = tested on: OVCAR-4 ovarian
OVCAR-3 ovarian = tested on: OVCAR-3 ovarian
NCI-H23 lung = tested on: NCI-H23 lung

Q: With `COc1ccc(/C=C(\C#N)c2nc3ccccc3c(=O)[nH]2)cc1` as the compound, how does the TGI (MALME-3M melanoma) read?
A: > 100 µM

Q: And the TGI (CCRF-CEM leukemia)?
A: > 100 µM

Q: And the TGI (DU-145 prostate)?
A: 64.6 µM

Q: What about the TGI (UACC-62 melanoma) of the same compound?
A: > 100 µM

Q: What about the TGI (SK-MEL-28 melanoma) of the same compound?
A: > 100 µM

Q: What about the TGI (K-562 leukemia) of the same compound?
A: > 100 µM

Q: And the TGI (SNB-19 CNS)?
A: 28.9 µM

Q: And the TGI (A549 NSCLC)?
A: > 100 µM

Q: What about the TGI (KM12 colon) of the same compound?
A: > 100 µM

Q: What about the TGI (786-0 renal) of the same compound?
A: 34.7 µM

Q: And the TGI (UO-31 renal)?
A: 72.4 µM

Q: What about the TGI (TK-10 renal) of the same compound?
A: 83.8 µM

Q: And the TGI (SNB-75 CNS)?
A: > 100 µM

Q: What about the TGI (COLO 205 colon) of the same compound?
A: > 100 µM

Q: What about the TGI (NCI-H522 lung) of the same compound?
A: 25.2 µM

Q: What about the TGI (SK-MEL-5 melanoma) of the same compound?
A: 57.1 µM

Q: And the TGI (HOP-62 NSCLC)?
A: 24.1 µM

Q: And the TGI (MOLT-4 leukemia)?
A: > 100 µM

Q: What about the TGI (SF-268 CNS) of the same compound?
A: 47.2 µM

Q: What about the TGI (PC-3 prostate) of the same compound?
A: > 100 µM

Q: And the TGI (HCC-2998 colon)?
A: > 100 µM

Q: And the TGI (NCI-H226 lung)?
A: 84.3 µM

Q: What about the TGI (HCT-116 colon) of the same compound?
A: 19 µM

Q: What about the TGI (SF-539 CNS) of the same compound?
A: 26.1 µM

Q: What about the TGI (MDA-MB-435) of the same compound?
A: > 100 µM

Q: And the TGI (MDA-MB-231 breast)?
A: 19.7 µM

Q: And the TGI (IGROV1 ovarian)?
A: 75.1 µM

Q: And the TGI (EKVX NSCLC)?
A: > 100 µM

Q: And the TGI (NCI-H460 lung)?
A: 34.4 µM

Q: And the TGI (OVCAR-8 ovarian)?
A: 28.4 µM

Q: And the TGI (U251 CNS)?
A: 33.9 µM

Q: What about the TGI (MCF7 breast) of the same compound?
A: > 100 µM

Q: What about the TGI (HCT-15 colon) of the same compound?
A: > 100 µM

Q: What about the TGI (BT-549 breast) of the same compound?
A: 29.7 µM

Q: What about the TGI (ACHN renal) of the same compound?
A: 42.3 µM

Q: What about the TGI (LOX IMVI melanoma) of the same compound?
A: > 100 µM

Q: And the TGI (HT29 colon)?
A: > 100 µM

Q: And the TGI (MDA-N)?
A: > 100 µM

Q: What about the TGI (HL-60(TB) leukemia) of the same compound?
A: > 100 µM

Q: What about the TGI (SK-MEL-2 melanoma) of the same compound?
A: 74.7 µM

Q: And the TGI (CAKI-1 renal)?
A: 80.1 µM

Q: What about the TGI (M14 melanoma) of the same compound?
A: > 100 µM

Q: And the TGI (SK-OV-3 ovarian)?
A: 23.8 µM

Q: And the TGI (SW-620 colon)?
A: > 100 µM

Q: And the TGI (HS 578T breast)?
A: 91.6 µM

Q: And the TGI (RXF 393 renal)?
A: 32.3 µM

Q: What about the TGI (NCI/ADR-RES ovarian) of the same compound?
A: 90.1 µM

Q: What about the TGI (OVCAR-5 ovarian) of the same compound?
A: > 100 µM

Q: And the TGI (T-47D breast)?
A: 75.1 µM

Q: And the TGI (UACC-257 melanoma)?
A: > 100 µM

Q: And the TGI (SR leukemia)?
A: > 100 µM

Q: And the TGI (HOP-92 NSCLC)?
A: 29.3 µM

Q: What about the TGI (SN12C renal) of the same compound?
A: > 100 µM

Q: What about the TGI (SF-295 CNS) of the same compound?
A: 52.2 µM

Q: And the TGI (RPMI-8226 leukemia)?
A: > 100 µM

Q: And the TGI (OVCAR-4 ovarian)?
A: 70.3 µM

Q: Which results are given for `COC(=O)c1c(OC(C)=O)ccc2c1c1c(OC(C)=O)c3ccccc3c(OC(C)=O)c1n2C`?
A: TGI (MALME-3M melanoma): 81.2 µM; TGI (CCRF-CEM leukemia): 60.5 µM; TGI (DU-145 prostate): > 100 µM; TGI (UACC-62 melanoma): 49.4 µM; TGI (SK-MEL-28 melanoma): > 100 µM; TGI (K-562 leukemia): 43.2 µM; TGI (SNB-19 CNS): > 100 µM; TGI (A549 NSCLC): > 100 µM; TGI (KM12 colon): 51.1 µM; TGI (786-0 renal): 94.8 µM; TGI (UO-31 renal): > 100 µM; TGI (TK-10 renal): 67.8 µM; TGI (SNB-75 CNS): 26.4 µM; TGI (COLO 205 colon): > 100 µM; TGI (NCI-H522 lung): 28.3 µM; TGI (SK-MEL-5 melanoma): 42.1 µM; TGI (HOP-62 NSCLC): 65.1 µM; TGI (MOLT-4 leukemia): 39.1 µM; TGI (SF-268 CNS): 77.3 µM; TGI (PC-3 prostate): > 100 µM; TGI (HCC-2998 colon): 52.1 µM; TGI (NCI-H226 lung): > 100 µM; TGI (OVCAR-3 ovarian): 44.5 µM; TGI (HCT-116 colon): 58.9 µM; TGI (SF-539 CNS): 61.7 µM; TGI (MDA-MB-435): > 100 µM; TGI (MDA-MB-231 breast): > 100 µM; TGI (IGROV1 ovarian): 35.5 µM; TGI (EKVX NSCLC): 39.2 µM; TGI (NCI-H460 lung): > 100 µM; TGI (OVCAR-8 ovarian): 85.2 µM; TGI (U251 CNS): 90.2 µM; TGI (MCF7 breast): > 100 µM; TGI (HCT-15 colon): > 100 µM; TGI (BT-549 breast): 57.1 µM; TGI (ACHN renal): 85 µM; TGI (HT29 colon): > 100 µM; TGI (MDA-N): > 100 µM; TGI (HL-60(TB) leukemia): 48.1 µM; TGI (SK-MEL-2 melanoma): 36 µM; TGI (CAKI-1 renal): 60 µM; TGI (M14 melanoma): 99.4 µM; TGI (SK-OV-3 ovarian): 52.4 µM; TGI (HS 578T breast): 62.5 µM; TGI (RXF 393 renal): > 100 µM; TGI (NCI/ADR-RES ovarian): > 100 µM; TGI (OVCAR-5 ovarian): > 100 µM; TGI (T-47D breast): 50.5 µM; TGI (SR leukemia): 34.5 µM; TGI (HOP-92 NSCLC): 38.7 µM; TGI (NCI-H23 lung): > 100 µM; TGI (SN12C renal): > 100 µM; TGI (SF-295 CNS): 70.7 µM; TGI (RPMI-8226 leukemia): 47.4 µM; TGI (OVCAR-4 ovarian): 93.5 µM
